The values below are quoted from earlier work in EP2061448B1, “SUSTAINED RELEASE FORMULATION OF NALTREXONE” (Nalpropion Pharmaceuticals, Inc., priority 2006, dated 2007).

For data set [1] the following is noted: oral administration, immediate release form.
For data set [2] the following is noted: initial 25 mg dose followed by 50 mg daily for 10 weeks.
The subject of data set [3] is pharmacologic effects of 25 mg of intravenously administered heroin.

Read-outs that look alike come from different tables or passages of the source.

For `O=C1CC[C@@]2(O)[C@H]3Cc4ccc(O)c5c4[C@@]2(CCN3CC2CC2)[C@H]1O5` [naltrexone, 17-(cyclopropylmethyl)-4,5α-epoxy-3,14-dihydroxymorphinan-6-one], in data set [1], the Tmax entry is “approximately 1 hour”. The “Moderate to severe nausea, patients” value in data set [2] was 15%.

Consider naltrexone hydrochloride, for which, in data set [3] (50 mg of naltrexone hydrochloride, 25 mg of intravenously administered heroin), the “period of block of the pharmacologic effects of heroin” value is ≤ 24 hours. The duration of blockade is 48 h in data set [3] (doubling the dose of naltrexone hydrochloride) and “about 72 hours” in data set [3] (tripling the dose of naltrexone hydrochloride).
